Results reported in PubChem BioAssay AID270 (DTP/NCI, 2004).
Several values for one entry are separate records, joined by “and”; a condition that tells them apart may be missing. Equal entries are not always repeated. Results filed as inconclusive are left out.

Test system: BDF1 mice, s.c. Lewis lung carcinoma, T/C %
Assay: NCI In Vivo Anticancer Drug Screen. Data for tumor model Lewis Lung Carcinoma (subcutaneous) in B6D2F1 (BDF1) mice
Summary of the method: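 Transplanted tumors grown in mice; compound vs vehicle dosing; endpoint survival or tumor size; ratio T/C.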

[1] = endpoint: median survival time, dose: 3.12 mg/kg/injection, schedule: Q01DX009 (ip), vehicle: Klucel (hydroxypropylcellulose) (HPC), higher = longer survival
[2] = endpoint: median survival time, dose: 6.25 mg/kg/injection, schedule: Q01DX009 (ip), vehicle: Klucel (hydroxypropylcellulose) (HPC), higher = longer survival
[3] = endpoint: median survival time, dose: 12.5 mg/kg/injection, schedule: Q01DX009 (ip), vehicle: Klucel (hydroxypropylcellulose) (HPC), higher = longer survival
[4] = endpoint: median survival time, dose: 25.0 mg/kg/injection, schedule: Q01DX009 (ip), vehicle: Klucel (hydroxypropylcellulose) (HPC), higher = longer survival

SMILES: O=C(O)CCC(=O)O
- T/C (endpoint: median survival time, dose: 0.62 mg/kg/injection, schedule: Q01DX009 (ip), vehicle: water, higher = longer survival): 110 % of control
- T/C (endpoint: median survival time, dose: 1.25 mg/kg/injection, schedule: Q01DX009 (ip), vehicle: water, higher = longer survival): 103 % of control
- T/C (endpoint: median survival time, dose: 2.5 mg/kg/injection, schedule: Q01DX009 (ip), vehicle: water, higher = longer survival): 93 % of control
- T/C (endpoint: median survival time, dose: 5.0 mg/kg/injection, schedule: Q01DX009 (ip), vehicle: water, higher = longer survival): 93 % of control and 108 % of control
- T/C (endpoint: median survival time, dose: 10.0 mg/kg/injection, schedule: Q01DX009 (ip), vehicle: water, higher = longer survival): 102 % of control and 107 % of control
- T/C (endpoint: median survival time, dose: 20.0 mg/kg/injection, schedule: Q01DX009 (ip), vehicle: water, higher = longer survival): 106 % of control and 115 % of control and 97 % of control
- T/C (endpoint: median survival time, dose: 40.0 mg/kg/injection, schedule: Q01DX009 (ip), vehicle: water, higher = longer survival): 96 % of control and 103 % of control and 108 % of control
- T/C (endpoint: median survival time, dose: 80.0 mg/kg/injection, schedule: Q01DX009 (ip), vehicle: water, higher = longer survival): 104 % of control

SMILES: Nc1nc2c(ncn2C2OC(CO)C(O)C2N)c(=O)[nH]1 (stereo unspecified)
- T/C (endpoint: median survival time, dose: 1.56 mg/kg/injection, schedule: Q01DX009 (ip), vehicle: saline, higher = longer survival): 95 % of control
- T/C [1]: 99 % of control
- T/C (endpoint: median survival time, dose: 3.13 mg/kg/injection, schedule: Q01DX009 (ip), vehicle: saline, higher = longer survival): 91 % of control and 104 % of control
- T/C [2]: 102 % of control
- T/C (endpoint: median survival time, dose: 6.25 mg/kg/injection, schedule: Q01DX009 (ip), vehicle: saline, higher = longer survival): 97 % of control
- T/C [3]: 102 % of control
- T/C (endpoint: median survival time, dose: 12.5 mg/kg/injection, schedule: Q01DX009 (ip), vehicle: saline with Tween-80, higher = longer survival): 95 % of control
- T/C (endpoint: median survival time, dose: 12.5 mg/kg/injection, schedule: Q01DX009 (ip), vehicle: saline, higher = longer survival): 98 % of control
- T/C [4]: 90 % of control
- T/C (endpoint: median survival time, dose: 25.0 mg/kg/injection, schedule: Q01DX009 (ip), vehicle: saline with Tween-80, higher = longer survival): 118 % of control
- T/C (endpoint: median survival time, dose: 25.0 mg/kg/injection, schedule: Q01DX009 (ip), vehicle: saline, higher = longer survival): 94 % of control
- T/C (endpoint: median survival time, dose: 50.0 mg/kg/injection, schedule: Q01DX009 (ip), vehicle: saline with Tween-80, higher = longer survival): 110 % of control

SMILES: C=C1C(=O)OC2C3OC(C)(CCC(O)C3COC(C)=O)CC(OC(=O)/C(=C/C)COC(C)=O)C12 (stereo unspecified)
- T/C [1]: 107 % of control
- T/C (endpoint: median survival time, dose: 3.13 mg/kg/injection, schedule: Q01DX009 (ip), vehicle: Klucel (hydroxypropylcellulose) (HPC), higher = longer survival): 101 % of control
- T/C [2]: 101 % of control
- T/C [3]: 114 % of control
- T/C [4]: 106 % of control

SMILES: O=C(N/N=C/c1ccc(O)cc1O)c1cccnc1
- T/C (endpoint: median survival time, dose: 6.25 mg/kg/injection, schedule: Q01DX009 (ip), vehicle: olive oil, sesame oil, peanut oil, higher = longer survival): 91 % of control
- T/C (endpoint: median survival time, dose: 25.0 mg/kg/injection, schedule: Q01DX009 (ip), vehicle: olive oil, sesame oil, peanut oil, higher = longer survival): 101 % of control

SMILES: CN1CC(=O)NC1=O
- T/C (endpoint: mean tumor weight, dose: 2000.0 mg/kg/injection, schedule: Q01DX011 (ip), vehicle: saline, higher = larger tumour): 99 % of control and 124 % of control

SMILES: Cc1cc2oc(=O)c3c(c2c(O)c1CN1CCCC1)CCCC3
- T/C (endpoint: median survival time, dose: 29.0 mg/kg/injection, schedule: Q01DX009 (ip), vehicle: Klucel (hydroxypropylcellulose) (HPC), higher = longer survival): 94 % of control
- T/C (endpoint: median survival time, dose: 58.0 mg/kg/injection, schedule: Q01DX009 (ip), vehicle: Klucel (hydroxypropylcellulose) (HPC), higher = longer survival): 106 % of control
- T/C (endpoint: median survival time, dose: 116.0 mg/kg/injection, schedule: Q01DX009 (ip), vehicle: Klucel (hydroxypropylcellulose) (HPC), higher = longer survival): 106 % of control
- T/C (endpoint: median survival time, dose: 232.0 mg/kg/injection, schedule: Q01DX009 (ip), vehicle: Klucel (hydroxypropylcellulose) (HPC), higher = longer survival): 94 % of control

SMILES: COc1ccccc1-c1cc(=O)c2ccc(OC)c(OC)c2o1
- T/C (endpoint: mean tumor weight, dose: 18.8 mg/kg/injection, schedule: Q01DX010 (ip), vehicle: saline, higher = larger tumour): 99 % of control
- T/C (endpoint: mean tumor weight, dose: 37.5 mg/kg/injection, schedule: Q01DX010 (ip), vehicle: saline, higher = larger tumour): 81 % of control
- T/C (endpoint: mean tumor weight, dose: 75.0 mg/kg/injection, schedule: Q01DX010 (ip), vehicle: saline, higher = larger tumour): 108 % of control
- T/C (endpoint: mean tumor weight, dose: 150.0 mg/kg/injection, schedule: Q01DX010 (ip), vehicle: saline, higher = larger tumour): 76 % of control

SMILES: CC(C)C(=O)[O][Sn]([c]1ccccc1)([c]1ccccc1)[c]1ccccc1
- T/C (endpoint: median survival time, dose: 3.0 mg/kg/injection, schedule: Q01DX009 (ip), vehicle: saline with Tween-80, higher = longer survival): 110 % of control
- T/C (endpoint: median survival time, dose: 6.0 mg/kg/injection, schedule: Q01DX009 (ip), vehicle: saline with Tween-80, higher = longer survival): 106 % of control
- T/C (endpoint: median survival time, dose: 12.0 mg/kg/injection, schedule: Q01DX009 (ip), vehicle: saline with Tween-80, higher = longer survival): 97 % of control

SMILES: Nc1n[nH]c(N)n1
- T/C (endpoint: median survival time, dose: 100.0 mg/kg/injection, schedule: Q01DX009 (ip), vehicle: saline with Tween-80, higher = longer survival): 113 % of control
- T/C (endpoint: median survival time, dose: 200.0 mg/kg/injection, schedule: Q01DX009 (ip), vehicle: saline with Tween-80, higher = longer survival): 102 % of control
- T/C (endpoint: median survival time, dose: 400.0 mg/kg/injection, schedule: Q01DX009 (ip), vehicle: saline with Tween-80, higher = longer survival): 95 % of control
- T/C (endpoint: median survival time, dose: 800.0 mg/kg/injection, schedule: Q01DX009 (ip), vehicle: saline with Tween-80, higher = longer survival): 110 % of control
- T/C (endpoint: median tumor weight (est.), dose: 100.0 mg/kg/injection, schedule: Q01DX009 (ip), vehicle: saline with Tween-80, higher = larger tumour): 100 % of control
- T/C (endpoint: median tumor weight (est.), dose: 200.0 mg/kg/injection, schedule: Q01DX009 (ip), vehicle: saline with Tween-80, higher = larger tumour): 103 % of control
- T/C (endpoint: median tumor weight (est.), dose: 400.0 mg/kg/injection, schedule: Q01DX009 (ip), vehicle: saline with Tween-80, higher = larger tumour): 97 % of control
- T/C (endpoint: median tumor weight (est.), dose: 800.0 mg/kg/injection, schedule: Q01DX009 (ip), vehicle: saline with Tween-80, higher = larger tumour): 91 % of control

SMILES: N=[N+]=CC(=O)CCC(NC(=O)C(CCC(=O)C=[N+]=N)NC(=O)CCC(N)C(=O)O)C(=O)O (stereo unspecified)
- T/C (endpoint: mean tumor weight, dose: 0.06 mg/kg/injection, schedule: Q01DX011 (ip), vehicle: water, higher = larger tumour): 103 % of control
- T/C (endpoint: mean tumor weight, dose: 0.12 mg/kg/injection, schedule: Q01DX011 (ip), vehicle: water, higher = larger tumour): 34 % of control
- T/C (endpoint: mean tumor weight, dose: 0.25 mg/kg/injection, schedule: Q01DX011 (ip), vehicle: water, higher = larger tumour): 17 % of control
- T/C (endpoint: median survival time, dose: 0.1 mg/kg/injection, schedule: Q01DX011 (ip), vehicle: other, higher = longer survival): 120 % of control
- T/C (endpoint: median survival time, dose: 0.2 mg/kg/injection, schedule: Q01DX011 (ip), vehicle: other, higher = longer survival): 89 % of control
- T/C (endpoint: median survival time, dose: 0.4 mg/kg/injection, schedule: Q01DX011 (ip), vehicle: other, higher = longer survival): 116 % of control
- T/C (endpoint: median survival time, dose: 0.8 mg/kg/injection, schedule: Q01DX011 (ip), vehicle: other, higher = longer survival): 107 % of control
- T/C (endpoint: median survival time, dose: 1.6 mg/kg/injection, schedule: Q01DX011 (ip), vehicle: other, higher = longer survival): 101 % of control

SMILES: N=C(N)Sc1cc(O)ccc1O
- T/C (endpoint: median survival time, dose: 12.5 mg/kg/injection, schedule: Q01DX009 (ip), vehicle: other, higher = longer survival): 102 % of control
- T/C (endpoint: median survival time, dose: 18.75 mg/kg/injection, schedule: Q01DX009 (ip), vehicle: saline, higher = longer survival): 120 % of control
- T/C (endpoint: median survival time, dose: 25.0 mg/kg/injection, schedule: Q01DX009 (ip), vehicle: other, higher = longer survival): 103 % of control
- T/C (endpoint: median survival time, dose: 37.5 mg/kg/injection, schedule: Q01DX009 (ip), vehicle: saline, higher = longer survival): 92 % of control
- T/C (endpoint: median survival time, dose: 50.0 mg/kg/injection, schedule: Q01DX009 (ip), vehicle: other, higher = longer survival): 93 % of control
- T/C (endpoint: median survival time, dose: 100.0 mg/kg/injection, schedule: Q01DX009 (ip), vehicle: other, higher = longer survival): 100 % of control
- T/C (endpoint: median survival time, dose: 200.0 mg/kg/injection, schedule: Q01DX009 (ip), vehicle: other, higher = longer survival): 93 % of control
- T/C (endpoint: median survival time, dose: 300.0 mg/kg/injection, schedule: Q01DX009 (ip), vehicle: saline, higher = longer survival): 91 % of control

SMILES: SCc1ccccn1
- T/C (endpoint: mean tumor weight, dose: 37.8 mg/kg/injection, schedule: Q01DX011 (ip), vehicle: carboxymethylcellulose (CMC), higher = larger tumour): 95 % of control
- T/C (endpoint: mean tumor weight, dose: 75.5 mg/kg/injection, schedule: Q01DX011 (ip), vehicle: carboxymethylcellulose (CMC), higher = larger tumour): 97 % of control
- T/C (endpoint: mean tumor weight, dose: 150.0 mg/kg/injection, schedule: Q01DX011 (ip), vehicle: carboxymethylcellulose (CMC), higher = larger tumour): 90 % of control

SMILES: Nc1nc(SCc2ccc([N+](=O)[O-])cc2)c2[nH]cnc2n1
- T/C (endpoint: mean tumor weight, dose: 125.0 mg/kg/injection, schedule: Q01DX011 (ip), vehicle: other, higher = larger tumour): 98 % of control
- T/C (endpoint: mean tumor weight, dose: 250.0 mg/kg/injection, schedule: Q01DX011 (ip), vehicle: other, higher = larger tumour): 75 % of control
- T/C (endpoint: mean tumor weight, dose: 500.0 mg/kg/injection, schedule: Q01DX011 (ip), vehicle: other, higher = larger tumour): 80 % of control
- T/C (endpoint: mean tumor weight, dose: 1000.0 mg/kg/injection, schedule: Q01DX011 (ip), vehicle: other, higher = larger tumour): 36 % of control

SMILES: CO[C@@]12[C@H](COC(N)=O)C3=C(C(=O)C(C)=C(N)C3=O)N1C[C@@H]1N[C@@H]12
- T/C (endpoint: median survival time, dose: 0.12 mg/kg/injection, schedule: Q01DX009 (ip), vehicle: saline, higher = longer survival): 98 % of control
- T/C (endpoint: median survival time, dose: 0.25 mg/kg/injection, schedule: Q01DX009 (ip), vehicle: Klucel (hydroxypropylcellulose) (HPC), higher = longer survival): 96 % of control
- T/C (endpoint: median survival time, dose: 0.25 mg/kg/injection, schedule: Q01DX009 (ip), vehicle: saline, higher = longer survival): 98 % of control
- T/C (endpoint: median survival time, dose: 0.5 mg/kg/injection, schedule: Q01DX009 (ip), vehicle: Klucel (hydroxypropylcellulose) (HPC), higher = longer survival): 96 % of control
- T/C (endpoint: median survival time, dose: 0.5 mg/kg/injection, schedule: Q01DX009 (ip), vehicle: saline, higher = longer survival): 96 % of control
- T/C (endpoint: median survival time, dose: 1.0 mg/kg/injection, schedule: Q01DX009 (ip), vehicle: saline, higher = longer survival): 103 % of control
